Like-named read-outs stand apart in the source and are kept apart here.
Assays:
[1] = system: Mice Having Their Nerves Damaged by Mercurialism; assay: T-shaped labyrinth learning and memory in mice damaged by methylmercuric chloride; format: in vivo; details: for number of mice that reached the standard / number of mice subjected to test: 40 mg/kg,i.p./day for 10 days after MMC 6 mg/kg/day; for average time required for running into the safety area: 40 mg/kg,i.p./day after MMC, average ± S.D.
Procedure: Male Balb/c mice of 7-weeks age were pre-trained in a T-shaped labylinth 3 times a week so that they learned to go straight from the starting area to the safety area. Then, a group of mice was orally administered methylmercuric chloride (hereinafter referred to as MMC) at a dose of 6 mg/kg/day for 7 days after the mice had reached 8-weeks age. A control group of mice was administered 0.l ml/l0 g/day of saline. The day after the completion of administration of MMC, the compound (I) of the invention was intraperitoneally administered at a dose of 40 mg/kg/day for l0 days. From the 23rd day, the training in the T-shape labylinth was restarted, and the running actions of the mice were observed. At the 7th day (29th day from the beginning of the experiment) and 8th day (30th day from the beginning of the experiment) from the re-starting of the training, the number of mice of each group, that could be subjected to test, was counted; and the number of mice that reached the standard (running into the safety area within 5 seconds) for 8 or more times per ten times trials was counted. In the following Table 6, the number of mice subjected to test is shown as the denominator, and the number of mice that reached the standard is shown as the numerator. Meanwhile, the decrease in number of mice was caused by death due to poisoning from MMC. Also shown in Table 6 are the average times (second) ± S.D. […] required for running into the safety area.

[2] = system: male ddy mice; assay: Acute toxicity test; format: in vivo; details: result in words
Procedure: (§1) The compound (I) was administered through two administration routes, i.e. orally and intravenous injection, to the groups each consisting of five male ddy mice, while increasing the dosage amounts little by little.
(§2) From the time immediately after the administration to the lapse of 7 days, the general syndrome and death of the mice were inspected. The medial lethal dose (LD₅₀) was calculated, through the Probit method, from the mortality rate at the 7th day from the beginning of administration. LD₅₀ = 58l mg/kg (through intraveous injection) 5000 mg/kg (through oral administration)

[3] = Acute toxicity test; format: in vivo; details: mouse, in vivo, mortality at the 7th day, Probit method, read-out: LD₅₀
Procedure: as §1, §2

[4] = system: rats having their sciatic nerves crushed; assay: Curing effect on rats with crushed sciatic nerve (distance between toes, weight of musculi soleus); format: in vivo, rat; details: for Recovery Rate (%) in Distance between the Fingers / Recovery Rate (%) in Weight of the Muscle: ip once per day, average ± S.D.; for Recovery Rate (%) in Weight of the Muscle: 28th Day
Procedure: The curing effect of the compound (I) of the invention on the rats having their sciatic nerves crushed, which were used as models caused by peripheral nervous disturbances, was assessed by examining (l) the change in action of the crushed hind leg and (2) the change in weight of the muscle as indicators for the modification of peripheral nerve and for the recovery course of the disturbance.
In the experiment, seven male Wister family rats (6 weeks age) were used per a group. The sciatic nerve of each rat was crushed in accordance with the method of Yamazu et al. (see Kiyomi Yamazu, Takenori Kaneko, Akifumi Kitahara and Isao Ohkawa, Journal of Japanese Pharmacological Society, 72, 259 - -268 (l976)) and in accordance with the method of Hasegawa et al. (see Kazuo Hasegawa, Naoji Mikuni and Yutaka Sakai, Journal of Japanese Pharmacological Society, 74, 72l - 734 (l978)). Specifically, under anesthesia with Pentobarbital (40 mg/kg, i.p.), the left sciatic nerve was exposed at the femur and the site 5 mm centrally from the branch portion between the N. tibialis and the N. suralis was crushed using a modified artery klemme having a width of 2 mm and gap of 0.l mm. Rats subjected to the operation were randomly dispensed to form the groups subjected to test.
The compound (I) of the invention was intraperitoneally administered one time per day from the day on which the nerve was crushed to the 22nd day. The control groups included a group administered with Mecobalamin (produced by Gedeon Richter Ltd.), a group administered with a 20% aqueous solution of propylene glycol (hereinafter referred to as 20% PG) which was used to dissolve the compound (I) of the invention, and a group administered with a 0.9% aqueous saline solution. The predetermined measurements were conducted with the lapse of time after the crushing operation (at the first, fourth, seventh, tenth, l4th, l5th, l7th, l9th 2lst and 28th days).
The distance between the toes was measured, since this is a good indicator showing the modification and recovery of the function of the nerve and the change thereof could conveniently measured with the lapse of time.
The measurement was conducted in accordance with the method of Hasegawa, (Hasegawa, K., Experientia, 34, 750 - 75l (l978)) by measuring the distance from the first toe to the fifth toe of the hind leg.
The ratio of the distance at the crushed side to the distance at the normal side was calculated as a percentage (%), the average values and the standard deviations (S.D.) being shown in Table 5.
It is known that removal of or disturbance in a certain nerve causes atrophy of the muscle controlled by the nerve, and the atrophy is gradually recovered by the recontrol by the nerve. For this reason, the quantitative change in weight of the muscle was selected as an indicator. At 28th day after the operation, the muscli soleus of both hind legs were extracted under anesthesia with Pentobarbital, and the weights of the muscles were weighed. The weight ratio of the muscli soleus at the crushed side to the muscli soleus at the normal side was calculated and represented by percentage (%).

CCCCCCCCCCCCCCOCC(COC1(C(=O)O)CC(O)C(NC(C)=O)C(C(O)C(O)CO)O1)OCCCCCCCCCCCCCC (stereo not drawn) [Compound (I)]
number of mice that reached the standard / number of mice subjected to test ([1]; 7th Day of re-started training, standard: safety area within 5 seconds in 8 or more of ten trials): 4/6
average time required for running into the safety area ([1]; 7th Day): 2.5 ± 0.8 s
number of mice that reached the standard / number of mice subjected to test ([1]; 8th Day of re-started training): 5/6
average time required for running into the safety area ([1]; 8th Day): 3.1 ± 0.7 s
remedy and restoration of learning and memory ability ([1]; result in words): had the effect of remedying and restoring the learning and memory ability
toxicity [2]: extremely low toxicity
LD50 at 168 h ([3]; intravenous injection): 581 mg/kg
LD50 at 168 h ([3]; oral administration): 5000 mg/kg
Recovery Rate (%) in Distance between the Fingers ([4]; 17th Day, 3 mg/kg, crushed side / normal side): 71.5 ± 5.5 %
Recovery Rate (%) in Distance between the Fingers ([4]; 17th Day, 30 mg/kg): 80.4 ± 9.6 %
Recovery Rate (%) in Distance between the Fingers ([4]; 19th Day, 3 mg/kg): 82.1 ± 9.7%
Recovery Rate (%) in Distance between the Fingers ([4]; 19th Day, 30 mg/kg): 90.3 ± 4.4 %
Recovery Rate (%) in Weight of the Muscle ([4]; 3 mg/kg, musculi soleus, crushed side / normal side): 82.8 ± 6.7%
Recovery Rate (%) in Weight of the Muscle ([4]; 30 mg/kg): 89.1 ± 5.7%
recovery of the distance between the toes and the weight of the musculi soleus ([4]; result in words): promoted the recovery to the normal values
